Source: patent US20220168427A1 (Ranok Therapeutics (Hangzhou) Co. Ltd., priority 2019, published 2022)

Experiments:
EGFR = assay: HSP90 Client Protein Degradation Flow Cytometry Assay, EGFR in HEK-293 cells; assay type: cell-based, human
Procedure: MV4-11 cells were plated in a 24-well tissue culture plate at a density of 350,000 cells/450 μL/well and incubated in 37° C./5% CO2 for 1 hr. Cells were then treated with compounds at various concentrations and incubated in 37° C./5% CO2 for 24 hr. Cells were harvested, washed once, counted and 200 μL of 1% paraformaldehyde/PBS was added and incubated for 15 min at room temperature. 200 μL of 1×PBS/0.4% Triton X-100 was added and incubated for 15 min at 4° C. Cells were washed three times and resuspended in 50 μL of 1×PBS/0.2% Triton X-100. 2 μL/10^6 cells of anti-BRD4 antibody (ABCAM, #128874) was added and mixed by pipetting up and down. Cells were incubated for 30 min at room temperature in the dark, washed three times and resuspended in 50 μL of 1×PBS/0.2% Triton X-100. Goat anti-rabbit IgG H&L antibody (1:2000 dilution) was added and mixed by pipetting up and down and incubated for 30 min at room temperature in the dark. Finally, cells were washed three times and resuspended in 200 μL of PBS for flow cytometric analysis.
Similar flow cytometry experiments for ERBB2 in BT-474 human breast carcinoma cells (ATCC, #HTB-20) and IGF1R, EGFR and RAF1 in HEK-293 human embryonic kidney (ATCC, #CRL-1573) were performed using anti-ERBB2 (R&D, #FAB1129P), anti-IGF1R (Cell Signaling Technology, #9750), anti-EGFR (Cell Signaling Technology, #139690) and anti-RAF1 (ABCAM, #ab181115) antibodies.

MV4-11 xenograft = assay: MV4-11 AML tumor xenograft study in mice; conditions: for animals tumor free at the end of the study: 3 weeks; for tumor growth inhibition: after 3 weeks of dosing
Procedure: (§1) Tumor Xenograft Studies in Mice
MV4-11 acute myeloid leukemia and SU-DHL-4 diffuse large B-cell lymphoma (ATCC, #CRL-2957) cells were cultured in medium supplemented with 10% fetal bovine serum at 37° C./5% CO2. 5×10^6 MV-4-11 or 1×10^7 SU-DHL-4 cells were collected and re-suspended in 0.1 mL of serum-free media with Matrigel (1:1 v/v) per mouse for subcutaneous inoculation in isoflurane anesthetized male BALB/c nude or C.B-17 scid mice, respectively (treated in accordance with AAALAC animal welfare guidelines). When the average tumor volumes reached 100-200 mm^3, tumor volume outliers were removed and the remaining animals randomly divided into groups of 6-8 with similar average tumor volumes in each group. […] […] The appearance and behavior of each mouse was observed and recorded daily. Body weights and tumor volumes were measured and recorded every 2-4 days and the results were expressed as group means±SEM. Pairwise statistical comparisons between groups were performed by one-way ANOVA, and p<0.05 was considered statistically significant.

SU-DHL-4 xenograft = assay: SU-DHL-4 DLBCL tumor xenograft study in mice
Procedure: as §1
5×10^6 MV-4-11 or 1×10^7 SU-DHL-4 cells were collected and re-suspended in 0.1 mL of serum-free media with Matrigel (1:1 v/v) per mouse for subcutaneous inoculation in isoflurane anesthetized male BALB/c nude or C.B-17 scid mice, respectively (treated in accordance with AAALAC animal welfare guidelines). When the average tumor volumes reached 100-200 mm^3, tumor volume outliers were removed and the remaining animals randomly divided into groups of 6-8 with similar average tumor volumes in each group. […] Animals were intravenously dosed at 25 mg/kg, 50 mg/kg or 100 mg/kg 1×/week for 3 or 4 weeks. The appearance and behavior of each mouse was observed and recorded daily. Body weights and tumor volumes were measured and recorded every 2-4 days and the results were expressed as group means±SEM. Pairwise statistical comparisons between groups were performed by one-way ANOVA, and p<0.05 was considered statistically significant.

BRD4 = molecular target: T1, BRD4 (Homo sapiens, UniProt O60885); assay: BRD4 Western Blotting in MV4-11 cells; assay type: cell-based
T1 construct: endogenous in cells; host or cells: MV4-11
Procedure: Cells were then collected by centrifugation, washed one time with cold PBS, supernatants aspirated and cell pellets lysed with 4° C. RIPA lysis buffer containing a protease/phosphatase inhibitor cocktail. The total protein concentrations of cell lysates were determined by BCA Protein Assay kit. Samples were normalized for equivalent protein concentrations, 5× loading buffer added and heated to 100° C. for 10 min and cooled to room temperature. 20 μl of each sample/well was loaded on a SDS-PAGE gel and electrophoresed for 20 min at 80 V, then 120 V for 1.5 hr. Gels were then electroblotted to nitrocellulose membranes using a wet-transfer method at 250 mA for 2.5 hr. Membranes were incubated with blocking buffer for 1 hr and washed 3 times with TBST for 5 min. Then membranes were incubated with anti-BRD4 (Cell Signaling Technology, #13440) and anti-beta-Actin (Cell Signaling Technology, #3700) antibodies diluted in blocking buffer per the manufacturer's recommendation at 4° C. overnight. After washing 3 times, blots were incubated with the appropriate labeled secondary antibody for 1 hr at room temperature and washed again. Images were read on a LI-COR and the optical density values of bands determined by ImageJ software. Data was analyzed using GraphPad Prism 7.0.

HSP90α = HSP90α (Homo sapiens, UniProt P07900); assay: HSP90α Binding Fluorescent Polarization (FP) Assay
Procedure, shortened: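 Duplicate wells held BSA buffer, FITC-geldanamycin tracer, compound (3-fold dilution plate spanning 40 μM–2.0 nM) and recombinant protein diluted to 28 μg/ml before addition. Polarization read at 30, 60 and 120 min, 25 °C. Background-corrected mP values gave IC50 through a four-parameter inhibitor-response fit.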

[1] = 100 mg/kg intravenously 1×/week
[2] = 100 mg/kg intravenously 1×/week, after 4 weeks of dosing

SMILES: Cc1sc2c(c1C)C(c1ccc(Cl)cc1)=N[C@@H](CC(=O)N1CCC(CN3CCN(Cc4ccc(-n5c(O)nnc5-c5cc(C(C)C)c(O)cc5O)cc4)CC3)CC1)c1nnc(C)n1-2.Cl [Compound 74, (S)-2-(4-(4-chlorophenyl)-2,3,9-trimethyl-6H-thieno[3,2-f][1,2,4]triazolo[4,3-a][1,4]diazepin-6-yl)-1-(4-((4-(4-(3-(2,4-dihydroxy-5-isopropylphenyl)-5-hydroxy-4H-1,2,4-triazol-4-yl)benzyl)piperazin-1-yl)methyl)piperidin-1-yl)ethan-1-one hydrochloride]
- IC50 (EGFR): 0.405 µM
- animals tumor free at the end of the study (MV4-11 xenograft; 50 mg/kg intravenously 1×/week): 1 out of 6
- tumor growth inhibition (MV4-11 xenograft; 50 mg/kg intravenously 1×/week): significant tumor growth inhibition
- animals tumor free at the end of the study (MV4-11 xenograft; [1]): 4 out of 6
- tumor growth inhibition (MV4-11 xenograft; [1]): significant tumor growth inhibition
- animal deaths and body weights (MV4-11 xenograft; any group): No animal deaths or significant effects on body weights were observed
- tumor growth inhibition (SU-DHL-4 xenograft; [2]): significant tumor growth inhibition
- tumor vs control (T/C) value (SU-DHL-4 xenograft; [2]): 41%
- animal deaths and body weights (SU-DHL-4 xenograft; any dose level): No animal deaths or significant effects on body weights were observed
- BRD4 degradation by western blotting with proteasome inhibitor bortezomib (BRD4; MV4-11 cells treated with both compound 074 and bortezomib): BRD4 degradation was blocked
- BRD4 degradation by western blotting (BRD4; MV4-11 cells, 24 hr, 100 and 300 nM): BRD4 degradation was observed
- DC50 (BRD4; MV4-11 cells, read-out: IC50 value for BRD4 degradation determined by western blotting): 0.059 µM
- potency in binding to HSP90, in words (HSP90α): moderate potency
- IC50 (HSP90α; competition with FITC-geldanamycin, read-out: HSP90 Binding Potency): 0.1 to 1 µM
